Assay results as given in paper PMC9785280, “Synthesis, Antiproliferative Evaluation and QSAR Analysis of Novel Halogen- and Amidino-Substituted Benzothiazoles and Benzimidazoles” (International Journal of Molecular Sciences, 2022).

What was measured:
human fibroblasts (BJ) = experiment: MTT antiproliferative assay, normal BJ fibroblasts; type: cell-based; conditions: Homo sapiens, Fibroblast, 72 h, MTT, mean ± SD of three independent experiments; normal cells
Protocol: (§1) The growth inhibition activity was assessed according to the slightly modified procedure performed at the National Cancer Institute, Developmental Therapeutics Program.
(§2) Examined compounds were dissolved in DMSO (1 × 10^−2 M). The experiments were carried out on seven human tumor cell lines and two normal cell lines. The following cell lines were used: HeLa (human cervical adenocarcinoma; purchased from ATCC), CaCo-2 (human colorectal adenocarcinoma), HuT78 (T-cell lymphoma), THP-1 (acute monocytic leukemia), SW620 (colorectal adenocarcinoma, metastatic), MDA-MB-231 (human breast adenocarcinoma), HL60 (promyelocytic leukemia cell line), foreskin fibroblast cells (BJ) and MDCK1 (Madine–Darby canine kidney fibroblast like cells). MDCK1 cells were used between 24 and 26 passages.
(§3) Adherent cells were cultured in the Dulbecco’s modified Eagle medium—DMEM (Gibco, EU) supplemented with 10 % heat-inactivated fetal bovine serum (FBS, Gibco, EU), 2 mM glutamine, and 100 U/0.1 mg penicillin/streptomycin. Cells on suspension were cultured in RPMI 1640 (Gibco, EU) medium supplemented with 10 % FBS (Gibco, EU), 2 mM glutamine, 1 mM sodium pyruvate, 10 mM HEPES. Cells were grown in humidified atmosphere under the conditions of 37 °C/5% of CO2 gas in the CO2 incubator (IGO 150 CELLlife^TM, JOUAN, Thermo Fisher Scientific, Waltham, MA, USA). A erythrosin B (Sigma-Aldrich, St. Louis, MO, USA) dye exclusion method was used to assess cell viability before plating.
(§4) Adherent cells (HeLa, CaCo-2, MCF-7 and MDCK-1) were plated in 96-well flat bottom plates (Greiner, Frickenhausen, Austria) at a concentration of 2 × 10^4 cells/mL. Suspension cells (THP-1 and HuT78) were plated in 96-well microtiter plates (Sarstead, Newton, USA) at a concentration of 1 × 10^5 cells/mL. Twenty-four hours later, cells were treated with test agents in […] 10-fold dilutions ([…] to 10^−4 M) and incubated for further 72 h. Working dilutions were freshly prepared on the day of testing. The solvent was also tested for eventual inhibitory activity by adjusting its concentration to be the same as in working concentrations. After 72 h of incubation, the cell growth rate was evaluated by performing the MTT assay, which detects dehydrogenase activity in viable cells. For this purpose, upon completion of the incubation period, growth medium was discarded and 50 μL of MTT was added to each well at a concentration of 5 mg/mL. After four hours of incubation at 37 °C, water insoluble MTT-formazan crystals were dissolved in 150 μL of dimethyl-sulfoxide (DMSO) for adherent cells, and in 10 % SDS with 0.01 M/L HCl for cells grown in suspension. The absorbance (OD, optical density) was measured on a microplate reader (iMark, BIO RAD, Hercules, CA, USA) at 595 nm.
(§5) Percent of life cells was calculated as follows: % = OD (sample)–OD (background)/OD (control)–OD (background) × 100.
(§6) Optical density (OD) of background for adherent cells is the OD of MTT solution and DMSO; OD (background) for suspension cells is OD of the culture medium with MTT and 10% SDS with 0.01 M/L HCl; OD (control) is the OD of the cells growth without tested compounds.
(§7) Calculation of GI50 value curves and QC analysis is performed by using the Excel tools and GraphPadPrism software (La Jolla, CA), v. 5.03. Briefly, individual concentration effect curves are generated by plotting the logarithm of the concentration of tested compounds(X) vs. corresponding percent inhibition values (Y) using least squares fit. The best fit GI50 values are calculated using Log (inhibitor) versus normalized response—Variable slope equation, where Y Ľ 100/(1 ţ 10 ((LogIC50 _ X) * HillSlope)). QC criteria parameters (Z0, S:B, R2, HillSlope) were checked for every GI50 curve.

[1] = system: MDCK1 (Madin–Darby canine kidney) cells; experiment: MTT antiproliferative assay, non-tumor MDCK1 cells; type: cell-based; conditions: Canis lupus familiaris, MDCK1, 72 h, mean ± SD of three independent experiments, normal cells
Protocol: as §1, §2, §3, §4, §5, §6, §7

[2] = system: HeLa (cervical adenocarcinoma) cells; experiment: MTT antiproliferative assay, HeLa; type: cell-based; conditions: Homo sapiens, 72 h, mean ± SD of three independent experiments
Protocol: as §1, §2, §3, §4, §5, §6, §7

[3] = system: HuT78 (T-cell lymphoma) cells; experiment: MTT antiproliferative assay, HuT78; type: cell-based, human; conditions: for IC50: Homo sapiens, HuT78, 72 h, 72 h, MTT, mean ± SD of three independent experiments; for SI (BJ) HuT78: SI = IC50 BJ / IC50 HuT78; for SI (MDCK) HuT78: SI = IC50 MDCK1 / IC50 HuT78
Protocol: as §1, §2, §3, §4, §5, §6, §7

[4] = system: CaCo-2 (colon adenocarcinoma) cells; experiment: MTT antiproliferative assay, CaCo-2; type: cell-based, human; conditions: for IC50: Homo sapiens, Caco-2, 72 h, MTT, mean ± SD of three independent experiments
Protocol: as §1, §2, §3, §4, §5, §6
Calculation of GI50 value curves and QC analysis is performed by using the Excel tools and GraphPadPrism software (La Jolla, CA), v. 5.03. Briefly, individual concentration effect curves are generated by plotting the logarithm of the concentration of tested compounds(X) vs. corresponding percent inhibition values (Y) using least squares fit. […] QC criteria parameters (Z0, S:B, R2, HillSlope) were checked for every GI50 curve.

Compound	IC50 (human fibroblasts (BJ)) [µM]	IC50 [1] [µM]	IC50 [2] [µM]	IC50 [3] [µM]	SI (BJ) HuT78 [3]	SI (MDCK) HuT78 [3]	IC50 [4] [µM]	SI (BJ) CaCo-2 ([4]; SI = IC50 BJ / IC50 CaCo-2)	melting point [°C]
COc1cc(-c2nc3ccccc3s2)ccc1OCc1ccccn1 [20c]	> 100	85.9 ± 15.7	> 100	64.7 ± 11.3	1.55	1.33	89.2 ± 16.8	1.12	110 to 115
Clc1ccc2nc(-c3ccc(OCc4c[nH]nn4)cc3)sc2c1 [21a, 6-Chloro-2-(4-((1H-1,2,3-triazol-4-yl)methoxy)phenyl)benzothiazole]	> 100	12.6 ± 4.8	> 100	6.8 ± 6.2	14.7	1.85	> 100		220 to 223
Fc1cc(-c2nc3ccc(Cl)cc3s2)ccc1OCc1c[nH]nn1 [21b, 6-Chloro-2-(3-fluoro-4-((1H-1,2,3-triazol-4-yl)methoxy)phenyl)benzothiazole]	84.1 ± 24.7	10.1 ± 4.5	> 100	3.6 ± 3.1	23.36	2.8	> 100		205 to 209
COc1cc(-c2nc3ccc(Cl)cc3s2)ccc1OCc1c[nH]nn1 [21c, 6-Chloro-2-(3-methoxy-4-((1H-1,2,3-triazol-4-yl)methoxy)phenyl)benzothiazole]	> 100	43.2 ± 12.4	> 100	24.3 ± 6.5	4.11	1.78	> 100		183 to 188
Fc1ccc2nc(-c3ccc(OCc4c[nH]nn4)cc3)sc2c1 [22a, 6-Fluoro-2-(4-((1H-1,2,3-triazol-4-yl)methoxy)phenyl)benzothiazole]	> 100	1.1 ± 0.2	54.5 ± 29.4	14.9 ± 10.8	6.71		73.5 ± 4.5		212 to 215
Fc1ccc2nc(-c3ccc(OCc4c[nH]nn4)c(F)c3)sc2c1 [22b, 6-Fluoro-2-(3-fluoro-4-((1H-1,2,3-triazol-4-yl)methoxy)phenyl)benzothiazole]	86.4 ± 20.9	1	50.6 ± 19.3	9.1 ± 2.8	9.49		> 100		177 to 180
COc1cc(-c2nc3ccc(F)cc3s2)ccc1OCc1c[nH]nn1 [22c, 6-Fluoro-2-(3-methoxy-4-((1H-1,2,3-triazol-4-yl)methoxy)phenyl)benzothiazole]	> 100	0.7 ± 0.3	> 100	38.1 ± 23.4	2.62		> 100		196 to 199
c1ccc2sc(-c3ccc(OCc4c[nH]nn4)cc3)nc2c1 [23a, 2-(4-((1H-1,2,3-triazol-4-yl)methoxy)phenyl)benzothiazole]	> 100	40.7 ± 5.7	52.4 ± 18.4	19 ± 4	5.26	2.14	95.6 ± 6.6		204 to 207
Fc1cc(-c2nc3ccccc3s2)ccc1OCc1c[nH]nn1 [23b, 2-(3-Fluoro-4-((1H-1,2,3-triazol-4-yl)methoxy)phenyl)benzothiazole]	40.5 ± 17.2	27.4 ± 4.2	34.9 ± 14.8	17.1 ± 7.7	2.34	1.6	56 ± 14.6		185 to 189
COc1cc(-c2nc3ccccc3s2)ccc1OCc1c[nH]nn1 [23c, 2-(3-Methoxy-4-((1H-1,2,3-triazol-4-yl)methoxy)phenyl)benzothiazole]	> 100	29.5 ± 7.2	45.7 ± 16.3	20 ± 8.7	5.0		96.4 ± 13.3		177 to 180
Clc1ccc2nc(-c3ccc(OCc4cn(Cc5ccccc5)nn4)cc3)sc2c1 [24a, 6-Chloro-2-(4-((1-benzyl-1H-1,2,3-triazol-4-yl)methoxy)phenyl)benzothiazole]	> 100	11.4 ± 14.5	> 100	> 100			> 100		201 to 205
Fc1cc(-c2nc3ccc(Cl)cc3s2)ccc1OCc1cn(Cc2ccccc2)nn1 [24b, 6-Chloro-2-(3-fluoro-4-((1-benzyl-1H-1,2,3-triazol-4-yl)methoxy)phenyl)benzothiazole]	> 100	8.8 ± 8.3	> 100	> 100			> 100		181 to 186
COc1cc(-c2nc3ccc(Cl)cc3s2)ccc1OCc1cn(Cc2ccccc2)nn1 [24c, 6-Chloro-2-(3-methoxy-4-((1-benzyl-1H-1,2,3-triazol-4-yl)methoxy)phenyl)benzothiazole]	> 100	41.1 ± 17.2	82.8 ± 32.3	49.6 ± 38	2.0		> 100		190 to 193
Fc1ccc2nc(-c3ccc(OCc4cn(Cc5ccccc5)nn4)cc3)sc2c1 [25a, 6-Fluoro-2-(4-((1-benzyl-1H-1,2,3-triazol-4-yl)methoxy)phenyl)benzothiazole]	10 ± 0.01	8.2 ± 5.8	> 100	> 100			> 100		176 to 180
